What is called solubility is the concentration that dissolves in the medium under given conditions. The term IC50 denotes the concentration at which inhibition is half-maximal. Higher therefore signals weaker potency.

We go through one molecule from PMC9894920, “Development of an improved and specific inhibitor of NADPH oxidase 2 to treat traumatic brain injury” (Redox Biology, 2023).

Data set [1] relates to mTBI induced cortical cell death. The data set is described as follows: Focal cortical mTBI model, transcranial administration, cortical cell death (propidium iodide). The class given is in vivo, mouse.
The nature of data set [2]: Aqueous kinetic solubility in PBS buffer. As to conditions: aqueous buffer, kinetic from dmso stock, read-out: Solubility. The class given is physicochemical. The protocol:
(§1) The rat liver microsomal stability, parallel artificial membrane permeability assay (PAMPA), and aqueous kinetic solubility assay in phosphate-buffered saline (PBS) buffer were performed as described in the indicated references.

Data set [3] can be described thus: Parallel artificial membrane permeability assay (PAMPA). It is filed as in vitro ADME. As to conditions: pH 7.4, PAMPA, pH7.4, read-out: Permeability(pH7.4) (PAMPA_Pion_Lipid 1e-6 cm/s). The protocol:
as §1

For data set [4], the target named is T1, NOX4 (Homo sapiens, UniProt Q9NPH5).
T1 construct: expressed in transfected cells; host or cells: Expi293 (human embryonic kidney) cells, transient transfection, 48 hours
T1 sequence (Q9NPH5 1-578): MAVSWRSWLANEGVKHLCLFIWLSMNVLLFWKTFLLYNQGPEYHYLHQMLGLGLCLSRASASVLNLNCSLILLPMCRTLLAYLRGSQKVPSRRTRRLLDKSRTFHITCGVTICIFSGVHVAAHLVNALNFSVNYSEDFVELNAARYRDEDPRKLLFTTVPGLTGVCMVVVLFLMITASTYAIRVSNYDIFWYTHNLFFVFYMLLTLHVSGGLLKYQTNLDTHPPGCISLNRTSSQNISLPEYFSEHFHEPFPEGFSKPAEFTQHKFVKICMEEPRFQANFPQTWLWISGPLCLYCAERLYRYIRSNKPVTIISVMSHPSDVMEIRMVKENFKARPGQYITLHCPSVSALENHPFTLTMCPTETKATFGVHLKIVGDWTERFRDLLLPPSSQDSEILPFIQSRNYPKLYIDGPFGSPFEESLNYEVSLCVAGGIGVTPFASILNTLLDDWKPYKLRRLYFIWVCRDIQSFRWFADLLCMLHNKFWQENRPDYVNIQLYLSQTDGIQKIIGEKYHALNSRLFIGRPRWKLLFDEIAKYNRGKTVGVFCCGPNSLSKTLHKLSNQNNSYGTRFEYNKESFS
T1 sequence (P13498 2-195 partner limits assumed): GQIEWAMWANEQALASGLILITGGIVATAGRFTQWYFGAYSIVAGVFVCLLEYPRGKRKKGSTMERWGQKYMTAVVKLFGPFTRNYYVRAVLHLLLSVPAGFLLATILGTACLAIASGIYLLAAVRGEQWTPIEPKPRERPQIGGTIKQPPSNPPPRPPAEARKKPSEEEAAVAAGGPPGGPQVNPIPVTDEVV
Briefly: Expi293 whole cell assay, NOX4 overexpression. The following applies: doses 100x higher than GSK2795039. It is filed as cell-based. As for the experimental part:
Given concerns about previous assays for specific NOX family members we here report the first use of the Expi293 Expression System (Thermo Scientific) to overexpress NOX1, 2, 3, 4, and 5 in excess of any endogenous NOX proteins present in these cells. Transfections were performed following the manufacturer's instructions using the plasmids for each NOX as described in Supplemental Table 2 except that the enhancer solution provided with the Expi293 system was not used because it promoted enzyme activation.
After the times indicated in Supplemental Table 2, cells were washed and 50,000 added per well of a white 96-well plate (Greiner) along with 50 μM Luminol and 2.5 U horseradish peroxidase/mL in a volume of 90 μl for NOX1, NOX2, and NOX5. Inhibitors or vehicle controls were added and cells were incubated for 20 min at 37 °C prior to activation with the indicated stimuli. For NOX3 and NOX4 (constitutively active), cells were incubated with inhibitor or vehicle control prior to the addition of luminol and HRP. Chemiluminescence was measured every 2 min for 1 s per well at 37 °C in a Varioscan Multimode reader. AUC data were analyzed using GraphPad Prism using non-linear regression analysis after expressing relative to control alone (maximum ROS production).

The nature of data set [5]: Rat liver microsomal stability. The following applies: SD, rat, liver microsomes, read-out: Rat_SD/Microsomes t1/2 (m). It is filed as in vitro ADME. The protocol:
as §1

For data set [6], the target named is T2, NOX2 (Mus musculus, UniProt Q61093).
T2 construct: relative potencies in primary mouse neutrophils enriched from bone marrow; endogenous in cells; host or cells: primary mouse bone-marrow granulocytes
T2 sequence (Q61093 2-570 limits assumed): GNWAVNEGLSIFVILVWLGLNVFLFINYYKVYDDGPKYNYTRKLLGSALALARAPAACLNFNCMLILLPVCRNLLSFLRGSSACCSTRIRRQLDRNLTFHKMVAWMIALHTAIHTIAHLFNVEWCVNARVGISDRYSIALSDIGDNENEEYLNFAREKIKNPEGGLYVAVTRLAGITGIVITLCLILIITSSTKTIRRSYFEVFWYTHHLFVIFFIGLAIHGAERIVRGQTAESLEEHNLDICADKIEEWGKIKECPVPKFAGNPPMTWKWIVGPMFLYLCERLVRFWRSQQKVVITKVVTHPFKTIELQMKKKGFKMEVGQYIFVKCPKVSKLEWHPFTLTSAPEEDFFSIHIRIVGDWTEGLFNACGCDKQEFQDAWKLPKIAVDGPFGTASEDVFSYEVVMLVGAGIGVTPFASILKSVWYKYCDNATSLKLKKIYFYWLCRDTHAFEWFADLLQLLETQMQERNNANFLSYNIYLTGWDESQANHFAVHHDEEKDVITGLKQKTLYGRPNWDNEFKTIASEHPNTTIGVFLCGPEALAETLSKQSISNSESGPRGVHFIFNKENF
T2 sequence (Q61462 2-192 partner limits assumed): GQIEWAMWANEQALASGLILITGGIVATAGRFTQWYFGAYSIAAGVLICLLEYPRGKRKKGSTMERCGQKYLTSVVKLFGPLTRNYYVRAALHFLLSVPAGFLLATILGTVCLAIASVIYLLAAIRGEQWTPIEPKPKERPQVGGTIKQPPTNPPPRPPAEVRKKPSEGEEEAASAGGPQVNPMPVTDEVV
Briefly: NOX2 activity in primary mouse neutrophils enriched from bone marrow. The class given is cell-based. The following applies: SD, n = 8 mice. The protocol: Human blood was obtained after informed consent by the Department of Transfusion Medicine (NIH Clinical Center) and provided as de-identified specimens. Human granulocytes were isolated using Percoll density fractionation as described and NOX2 activity was assessed in white polypropylene flat bottom 96 well plates following 15 min of preincubation at 37 °C with compounds or vehicle controls using 50 μM luminol as a chemiluminescence enhancer in an assay volume of 100 μl RPMI1640 with 1.1 × 10^5 cells/well in Varioskan Lux luminometer for 30 cycles of 1 s per well (approximately 1 h).
Mouse granulocytes were isolated from bone marrow essentially as described except bones were not sterilized in ethanol and marrow was not flushed through a 100 μm strainer. Furthermore, RPMI1640 was supplemented with 10% FBS, 2 mM EDTA, and 25 mM HEPES buffer and penicillin/streptomycin was omitted. Polymorphonuclear leukocytes (PMN) concentration and purity (>90% granulocytes) were assessed microscopically using 3% acetic acid and a hemacytometer. NOX2 activity was assessed as described above with human granulocytes.

≈ marks a conversion by molar mass, not a printed value.

For the molecule `Cn1ccc(S(=O)(=O)Nc2ccnc3c2c(-c2ccc4ccn(C)c4c2)cn3C2CC2)n1` [NCATS-SM7270, N-(1-cyclopropyl-3-(1-methyl-1H-indol-6-yl)-1H-pyrrolo [2,3-b]pyridin-4-yl)-1-methyl-1H-pyrazole-3-sulfonamide], the “cortical cell death in NOX1 deficient mice” value in data set [1] (NOX1 KO mice, 40 μM transcranial) was “had no impact”. In addition, in data set [1] (NOX2 KO mice, 40 μM transcranial), the “cortical cell death in NOX2 deficient mice” value was “had no impact”. For the same molecule, the “cortical cell death in NOX4 KO mice” value in data set [1] (NOX4 KO mice, 40 μM transcranial) is listed as “significantly reduced cortical cell death”. Further, the “reduction of cortical cell death” value in data set [1] (WT mice, 40 μM transcranially immediately after mTBI) is on record as about 50%. The “dose dependence of reduction in mTBI induced cortical cell death” value in data set [1] (WT mice, transcranial, titration 10, 50 or 100 μM) is “dose-dependent reduction”. Moreover, the solubility in data set [2] is 19.6 µg/mL (≈ 43.9 µM). The Papp in data set [3] came to 999 ×10⁻⁶ cm/s. For the same molecule, the “activity against NOX4” value in data set [4] was “no detectable activity”. In addition, the half-life in data set [5] was 3.7 min. In data set [6], this molecule returned an IC50 of 4.28 ± 1.05 µM.
